Where “and” joins values, the source holds several entries; their conditions need not be identical. Equal entries are not always repeated.
What was measured:
hrCYP2C19 = hrCYP2C19 (Homo sapiens, UniProt P33261); experiment: CYP reaction phenotyping with hrCYP2C19 (% remaining); format: in vitro ADME; details: hrCYP2C19 20 pmol CYP/mL, 5 μM TA, PB and TUDCA co-incubated
[1] = biological target: T1, CYPs in human liver microsomes (HLM) (Homo sapiens, UniProt P05177); experiment: CYP reaction phenotyping in HLM with chemical inhibitors (% remaining); details: +NADPH +furafylline (CYP1A2), pre-incubated
T1 sequence (P05177 1-516): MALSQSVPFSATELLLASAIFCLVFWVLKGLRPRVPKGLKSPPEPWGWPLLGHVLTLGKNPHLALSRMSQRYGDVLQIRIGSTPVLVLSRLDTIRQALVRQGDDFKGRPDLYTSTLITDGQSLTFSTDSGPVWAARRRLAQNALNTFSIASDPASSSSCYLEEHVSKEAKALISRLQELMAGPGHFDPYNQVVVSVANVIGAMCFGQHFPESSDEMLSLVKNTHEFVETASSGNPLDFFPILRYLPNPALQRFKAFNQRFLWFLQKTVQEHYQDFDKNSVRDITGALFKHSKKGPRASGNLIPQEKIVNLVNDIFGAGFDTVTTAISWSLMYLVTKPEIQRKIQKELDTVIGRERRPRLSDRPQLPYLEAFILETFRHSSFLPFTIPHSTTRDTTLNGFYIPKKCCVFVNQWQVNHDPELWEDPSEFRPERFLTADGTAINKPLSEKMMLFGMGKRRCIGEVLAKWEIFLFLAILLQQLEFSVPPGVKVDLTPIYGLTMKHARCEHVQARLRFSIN

[2] = biological target: CYPs in human liver microsomes (HLM) (Homo sapiens, UniProt P10635); experiment: as above; details: +NADPH +quinidine (CYP2D6)
[3] = biological target: CYPs in human liver microsomes (HLM) (Homo sapiens, UniProt P11712); experiment: as above; details: +NADPH +sulfaphenazole (CYP2C9)
[4] = biological target: CYPs in human liver microsomes (HLM) (Homo sapiens, UniProt P33261); experiment: as above; details: +NADPH +N3B (CYP2C19)
[5] = system: CYPs in human liver microsomes (HLM); experiment: as above
[6] = Rat drug-drug interaction study TDF + AMX0035: plasma pharmacokinetics; details: for Plasma Concentration of analyte at 0.50 hr / Plasma Concentration of analyte at 1.0 hr / Plasma Concentration of analyte at 2.0 hr / Plasma Concentration of analyte at 4.0 hr / Plasma Concentration of analyte at 8.0 hr / Plasma Concentration of analyte at 24 hr / Plasma Concentration of analyte at […] / AUC0-24 / AUClast / Cmax / Tlast / Tmax: male Sprague Dawley rats; for AUC0-24 / AUClast / Cmax / Tlast / Tmax: oral, plasma
Procedure: This study was comprised of one group of three male CD® (Sprague-Dawley) IGS rats.
Clinical observations were recorded approximately 1 hour post-dose on Days 1-4 and twice on Day 5, once post-AMX0035 administration and once post-TDF administration. Body weight measurements were recorded prior to randomization and then daily through the end of the study.
Nominal dose values and nominal sampling times were used for calculations. […] Pharmacokinetic analysis included the determination of Cmax, Tmax, AUClast, Tlast, and AUC0-24.

[7] = Day 1, TDF only 25 mg/kg oral, individual animals, BLQ = <50 ng/mL
[8] = Day 1, TDF only 25 mg/kg oral, mean of 3, BLQ set to zero
[9] = Day 5, AMX0035 + TDF 840/25 mg/kg oral, individual animals, BLQ = <50 ng/mL
[10] = Day 5, AMX0035 + TDF 840/25 mg/kg oral, mean of 3, BLQ set to zero
[11] = Day 1, TDF only 25 mg/kg, individual animals
[12] = Day 1, TDF only 25 mg/kg, mean, N=3
[13] = Day 5, AMX0035 + TDF 840/25 mg/kg, individual animals
[14] = Day 5, AMX0035 + TDF 840/25 mg/kg, mean, N=3

Sequence of CYPs in human liver microsomes (HLM) (Homo sapiens, UniProt P10635) (P10635 whole entry): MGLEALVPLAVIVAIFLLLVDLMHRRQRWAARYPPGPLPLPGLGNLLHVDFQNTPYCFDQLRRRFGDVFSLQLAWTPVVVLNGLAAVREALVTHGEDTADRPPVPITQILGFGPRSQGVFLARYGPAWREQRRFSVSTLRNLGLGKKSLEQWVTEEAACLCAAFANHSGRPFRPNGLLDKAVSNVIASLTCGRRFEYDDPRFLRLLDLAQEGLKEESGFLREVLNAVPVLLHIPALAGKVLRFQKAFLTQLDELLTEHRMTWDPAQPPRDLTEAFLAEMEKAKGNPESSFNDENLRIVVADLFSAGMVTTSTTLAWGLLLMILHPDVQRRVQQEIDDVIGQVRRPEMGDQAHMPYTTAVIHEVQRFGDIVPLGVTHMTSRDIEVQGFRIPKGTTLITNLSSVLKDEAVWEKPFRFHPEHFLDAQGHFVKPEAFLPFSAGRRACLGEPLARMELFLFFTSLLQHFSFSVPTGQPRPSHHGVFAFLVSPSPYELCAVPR
Sequence of CYPs in human liver microsomes (HLM) (Homo sapiens, UniProt P11712) (P11712 whole entry): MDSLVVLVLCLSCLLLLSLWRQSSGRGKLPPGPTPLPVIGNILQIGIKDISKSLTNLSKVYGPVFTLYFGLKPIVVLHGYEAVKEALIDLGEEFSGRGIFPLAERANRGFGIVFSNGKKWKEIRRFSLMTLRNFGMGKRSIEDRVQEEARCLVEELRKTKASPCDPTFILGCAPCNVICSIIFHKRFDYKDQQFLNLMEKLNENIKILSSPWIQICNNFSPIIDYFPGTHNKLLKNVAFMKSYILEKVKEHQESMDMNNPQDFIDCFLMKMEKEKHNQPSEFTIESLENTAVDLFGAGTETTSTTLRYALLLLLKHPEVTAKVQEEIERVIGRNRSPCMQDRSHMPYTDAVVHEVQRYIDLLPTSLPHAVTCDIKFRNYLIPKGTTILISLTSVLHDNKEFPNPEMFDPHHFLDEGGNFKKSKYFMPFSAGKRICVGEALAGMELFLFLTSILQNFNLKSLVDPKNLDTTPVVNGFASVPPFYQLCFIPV
Sequence of hrCYP2C19 (P33261 whole entry): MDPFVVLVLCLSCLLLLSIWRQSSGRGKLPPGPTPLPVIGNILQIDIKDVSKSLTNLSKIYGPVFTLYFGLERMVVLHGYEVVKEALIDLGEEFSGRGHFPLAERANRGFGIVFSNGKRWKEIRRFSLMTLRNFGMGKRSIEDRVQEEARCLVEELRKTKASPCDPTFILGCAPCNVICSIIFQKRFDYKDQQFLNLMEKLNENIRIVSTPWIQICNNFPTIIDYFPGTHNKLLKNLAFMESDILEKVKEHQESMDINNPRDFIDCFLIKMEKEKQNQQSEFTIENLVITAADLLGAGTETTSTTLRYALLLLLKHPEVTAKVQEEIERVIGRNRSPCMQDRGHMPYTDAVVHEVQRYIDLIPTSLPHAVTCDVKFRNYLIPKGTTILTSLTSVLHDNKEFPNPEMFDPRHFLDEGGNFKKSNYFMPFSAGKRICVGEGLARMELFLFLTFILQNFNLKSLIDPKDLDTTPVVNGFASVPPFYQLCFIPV
Sequence of CYPs in human liver microsomes (HLM) (Homo sapiens, UniProt P33261) (P33261 whole entry): as above

With tauroursodeoxycholic acid [TUDCA] the “% Remaining of TA” value (hrCYP2C19; 0 min) was 100%, the “% Remaining of TA” value (hrCYP2C19; 5 min) was 96.1% and the “% Remaining of TA” value (hrCYP2C19; 10 min) was 98.7%. For the same substance, the “% Remaining of TA” value (hrCYP2C19; 20 min) was 94.8%, the “% Remaining of TA” value (hrCYP2C19; 30 min) was 95.1% and the “% remaining of TA in HLM” value ([1]; 5 min) was 123%. The “% remaining of TA in HLM” value ([1]; 10 min) was 123%, the “% remaining of TA in HLM” value ([1]; 20 min) was 121% and the “% remaining of TA in HLM” value ([1]; 30 min) was 120%. The “% remaining of TA in HLM” value ([1]; 60 min) was 128%, the “% remaining of TA in HLM” value ([2]; 10 min) was 110% and the “% remaining of TA in HLM” value ([2]; 20 min) was 99.7%. For the same substance, the “% remaining of TA in HLM” value ([2]; 60 min) was 87.2%, the “% remaining of TA in HLM” value ([3]; 10 min) was 96.9% and the “% remaining of TA in HLM” value ([3]; 20 min) was 92.8%. The “% remaining of TA in HLM” value ([3]; 30 min) was 95.0%, the “% remaining of TA in HLM” value ([3]; 60 min) was 95.3% and the “% remaining of TA in HLM” value ([4]; 5 min) was 106%. For the same substance, the “% remaining of TA in HLM” value ([4]; 10 min) was 93.0%, the “% remaining of TA in HLM” value ([4]; 20 min) was 93.1% and the “% remaining of TA in HLM” value ([4]; 30 min) was 92.1%. The “% remaining of TA in HLM” value ([4]; 60 min) was 94.5%, the “Metabolism by the major CYPs in HLM” value [5] was “neither PB nor TUDCA is metabolized” and the “% remaining of TA in HLM” value ([5]; +NADPH +ketoconazole (CYP3A), 10 min) was 110%. For the same substance, the “% remaining of TA in HLM” value ([5]; +NADPH +ketoconazole (CYP3A), 20 min) was 108%, the “% remaining of TA in HLM” value ([5]; +NADPH +ketoconazole (CYP3A), 30 min) was 94.1% and the “% remaining of TA in HLM” value ([5]; Maximum Metabolism-1: +NADPH −inhibitor, pre-incubated, 5 min) was 112%. For the same substance, the “% remaining of TA in HLM” value ([5]; Maximum Metabolism-1: +NADPH −inhibitor, pre-incubated, 10 min) was 126%, the “% remaining of TA in HLM” value ([5]; Maximum Metabolism-1: +NADPH −inhibitor, pre-incubated, 20 min) was 123% and the “% remaining of TA in HLM” value ([5]; Maximum Metabolism-1: +NADPH −inhibitor, pre-incubated, 30 min) was 121%. The “% remaining of TA in HLM” value ([5]; Maximum Metabolism-1: +NADPH −inhibitor, pre-incubated, 60 min) was 121%, the “% remaining of TA in HLM” value ([5]; Maximum Metabolism-2: +NADPH −inhibitor, 5 min) was 103% and the “% remaining of TA in HLM” value ([5]; Maximum Metabolism-2: +NADPH −inhibitor, 10 min) was 103%. For the same substance, the “% remaining of TA in HLM” value ([5]; Maximum Metabolism-2: +NADPH −inhibitor, 20 min) was 103%, the “% remaining of TA in HLM” value ([5]; Maximum Metabolism-2: +NADPH −inhibitor, 30 min) was 102% and the “% remaining of TA in HLM” value ([5]; Maximum Metabolism-2: +NADPH −inhibitor, 60 min) was 96.9%. The “% remaining of TA in HLM” value ([5]; Negative Control-1: −NADPH −inhibitor, pre-incubated, 5 min) was 117%, the “% remaining of TA in HLM” value ([5]; Negative Control-1: −NADPH −inhibitor, pre-incubated, 10 min) was 129% and the “% remaining of TA in HLM” value ([5]; Negative Control-1: −NADPH −inhibitor, pre-incubated, 20 min) was 119%. The “% remaining of TA in HLM” value ([5]; Negative Control-1: −NADPH −inhibitor, pre-incubated, 30 min) was 130%, the “% remaining of TA in HLM” value ([5]; Negative Control-1: −NADPH −inhibitor, pre-incubated, 60 min) was 132% and the “% remaining of TA in HLM” value ([5]; Negative Control-2: −NADPH −inhibitor, 5 min) was 104%. For the same substance, the “% remaining of TA in HLM” value ([5]; Negative Control-2: −NADPH −inhibitor, 10 min) was 104%, the “% remaining of TA in HLM” value ([5]; Negative Control-2: −NADPH −inhibitor, 20 min) was 105% and the “% remaining of TA in HLM” value ([5]; Negative Control-2: −NADPH −inhibitor, 30 min) was 106%. The “% remaining of TA in HLM” value ([5]; Negative Control-2: −NADPH −inhibitor, 60 min) was 106%, the “Plasma Concentration of analyte at 0.50 hr” value [6, 7] was 154 ng/mL and 148 ng/mL and 45.4 ng/mL and the “Plasma Concentration of analyte at 1.0 hr” value [6, 7] was 239 ng/mL and 197 ng/mL and 108 ng/mL. The “Plasma Concentration of analyte at 2.0 hr” value [6, 7] was 313 ng/mL and 186 ng/mL and 76.8 ng/mL, the “Plasma Concentration of analyte at 4.0 hr” value [6, 7] was 199 ng/mL and 153 ng/mL and 71.4 ng/mL and the “Plasma Concentration of analyte at 8.0 hr” value [6, 7] was 338 ng/mL and 211 ng/mL and 68.8 ng/mL. The “Plasma Concentration of analyte at 24 hr” value [6, 7] was 267 ng/mL and 287 ng/mL and 113 ng/mL, the “Plasma Concentration of analyte at […]” value [6, 7] was 201 ng/mL and 121 ng/mL and 69.3 ng/mL and the “Plasma Concentration of analyte at 0.50 hr” value [6, 8] was 116 ng/mL. For the same substance, the “Plasma Concentration of analyte at 1.0 hr” value [6, 8] was 181 ng/mL, the “Plasma Concentration of analyte at 2.0 hr” value [6, 8] was 192 ng/mL and the “Plasma Concentration of analyte at 4.0 hr” value [6, 8] was 141 ng/mL. For the same substance, the “Plasma Concentration of analyte at 8.0 hr” value [6, 8] was 139 ng/mL, the “Plasma Concentration of analyte at 24 hr” value [6, 8] was 222 ng/mL and the “Plasma Concentration of analyte at […]” value [6, 8] was 130 ng/mL. For the same substance, the “Mean endogenous plasma levels” value ([6]; Day 1, no AMX0035, over 24 hours) was 130 to 222 ng/mL, the “Increase of plasma concentration vs Day 1 at each time point” value ([6]; Day 5) was 30-50% and the “Peak (Cmax) plasma value” ([6]; Day 5, AMX0035 840 mg/kg PO) was 298 ng/mL. The “Plasma Concentration of analyte at 0.50 hr” value [6, 9] was 96.1 ng/mL and 225 ng/mL and 183 ng/mL, the “Plasma Concentration of analyte at 1.0 hr” value [6, 9] was 154 ng/mL and 236 ng/mL and 366 ng/mL and the “Plasma Concentration of analyte at 2.0 hr” value [6, 9] was 126 ng/mL and 200 ng/mL and 505 ng/mL. The “Plasma Concentration of analyte at 4.0 hr” value [6, 9] was 123 ng/mL and 176 ng/mL and 255 ng/mL, the “Plasma Concentration of analyte at 8.0 hr” value [6, 9] was 103 ng/mL and 172 ng/mL and 187 ng/mL and the “Plasma Concentration of analyte at 24 hr” value [6, 9] was 130 ng/mL and 216 ng/mL and 178 ng/mL. For the same substance, the “Plasma Concentration of analyte at […]” value [6, 9] was 84.0 ng/mL and 220 ng/mL and 235 ng/mL, the “Plasma Concentration of analyte at 0.50 hr” value [6, 10] was 168 ng/mL and the “Plasma Concentration of analyte at 1.0 hr” value [6, 10] was 252 ng/mL. The “Plasma Concentration of analyte at 2.0 hr” value [6, 10] was 277 ng/mL, the “Plasma Concentration of analyte at 4.0 hr” value [6, 10] was 185 ng/mL and the “Plasma Concentration of analyte at 8.0 hr” value [6, 10] was 154 ng/mL. The “Plasma Concentration of analyte at 24 hr” value [6, 10] was 175 ng/mL, the “Plasma Concentration of analyte at […]” value [6, 10] was 180 ng/mL and the AUC0-24 [6, 11] was 2040 ng·h/mL and 4870 ng·h/mL and 5380 ng·h/mL. For the same substance, the AUClast [6, 11] was 2040 ng·h/mL and 4870 ng·h/mL and 5380 ng·h/mL, the Cmax [6, 11] was 113 ng/mL and 313 ng/mL and 287 ng/mL and the Tlast [6, 11] was 24 h. The Tmax [6, 11] was 24 h and 2.0 h, the AUC0-24 [6, 12] was 409 ng·h/mL and the AUClast [6, 12] was 4090 ng·h/mL. The Cmax [6, 12] was 238 ng/mL, the Tlast [6, 12] was 24 h and the Tmax [6, 12] was 17 h. For the same substance, the AUC0-24 [6, 13] was 2800 ng·h/mL and 4590 ng·h/mL and 5220 ng·h/mL, the AUClast [6, 13] was 2800 ng·h/mL and 4590 ng·h/mL and 5220 ng·h/mL and the Cmax [6, 13] was 154 ng/mL and 236 ng/mL and 505 ng/mL. The Tlast [6, 13] was 24 h, the Tmax [6, 13] was 1.0 h and 2.0 h and the AUC0-24 [6, 14] was 4200 ng·h/mL. It also gave an AUClast [6, 14] of 4200 ng·h/mL, a Cmax [6, 14] of 298 ng/mL and a Tlast [6, 14] of 24 h. For the same substance, the Tmax [6, 14] was 1.3 h.
